# Target: T1, cholesterol oxidase (COx; H/D-COx) (Streptomyces sp. SA-COO, UniProt P12676)
# T1 construct: gene choA; secreted mature form; H/D-exchanged crystal
# Test: joint X-ray/neutron crystal structure, […] A neutron, […] A X-ray
# Type: binding
# Conditions: H/D-exchanged crystal (D2O soak), room-temperature neutron data, crystallised at pH 5.2; Gly120 N-H to FAD N5 hydrogen bond
# T1 sequence (P12676 43-546): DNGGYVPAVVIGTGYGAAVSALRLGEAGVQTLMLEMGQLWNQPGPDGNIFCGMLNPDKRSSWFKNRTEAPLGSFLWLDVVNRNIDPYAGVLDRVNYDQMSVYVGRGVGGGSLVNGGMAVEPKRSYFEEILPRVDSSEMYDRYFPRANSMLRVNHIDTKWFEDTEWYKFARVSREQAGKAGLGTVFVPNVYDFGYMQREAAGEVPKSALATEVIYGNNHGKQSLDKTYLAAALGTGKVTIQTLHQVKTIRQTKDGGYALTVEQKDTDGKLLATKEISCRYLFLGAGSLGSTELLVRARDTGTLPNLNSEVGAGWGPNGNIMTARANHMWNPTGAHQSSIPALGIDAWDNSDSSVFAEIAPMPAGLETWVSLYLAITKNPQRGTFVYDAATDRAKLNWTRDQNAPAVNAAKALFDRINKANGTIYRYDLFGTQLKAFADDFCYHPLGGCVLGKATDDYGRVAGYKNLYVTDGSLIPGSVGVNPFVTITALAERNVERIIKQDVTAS
smiles,measurement,value
Cc1cc2nc3c(=O)[nH]c(=O)nc-3n(C[C@H](O)[C@H](O)[C@H](O)COP(=O)(O)OP(=O)(O)OC[C@H]3O[C@@H](n4cnc5c(N)ncnc54)[C@H](O)[C@@H]3O)c2cc1C [FAD],"joint X-ray/neutron crystal structure, 2.2 A neutron, 1.5 A X-ray",one involved in a conserved hydrogen bond between Gly120-NH and FAD-N5

# Reference: publication PMC5241826, “An extended N-H bond, driven by a conserved second-order interaction, orients the flavin N5 orbital in cholesterol oxidase” (Scientific Reports, 2017)
